Experimental findings from patent publication US20250170141A1, “MRGPRX2 MODULATORS AND RELATED METHODS OF TREATMENT” (Escient Pharmaceuticals, Inc., priority 2023, published 2025) are described below.

A value given as a limit tells only on which side of the number the result lay.

The target of this assay is T1, human MRGPRX2 (Homo sapiens, UniProt Q96LB1).
T1 construct: expressed in transfected cells; host or cells: CHO cells, stably transfected (G418 and Hygromycin B selection)
T1 sequence (Q96LB1 1-330): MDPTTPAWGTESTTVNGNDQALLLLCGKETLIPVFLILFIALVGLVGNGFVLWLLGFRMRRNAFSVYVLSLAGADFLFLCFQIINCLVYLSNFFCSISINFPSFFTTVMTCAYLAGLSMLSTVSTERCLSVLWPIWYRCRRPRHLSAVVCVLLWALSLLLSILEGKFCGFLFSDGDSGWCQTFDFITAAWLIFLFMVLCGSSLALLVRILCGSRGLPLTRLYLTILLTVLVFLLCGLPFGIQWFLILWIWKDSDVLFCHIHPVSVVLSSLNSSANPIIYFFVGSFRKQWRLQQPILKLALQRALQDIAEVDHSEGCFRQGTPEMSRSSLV
In words: MRGPRX2 activity: IP-One Gq HTRF assay in CHO cells, antagonism versus 0.3 uM Cortistatin-14. The conditions noted are these: versus 0.3 uM Cortistatin-14 agonist, CHO cells expressing human MRGPRX2, read-out: MRGPRX2 Antagonist Activity. Type of assay: cell-based. As to the method: CHO cells stably transfected to express human MRGPRX2 were maintained in an incubator at 37° C. with 5% CO2 and grown in F12 (HAM) media with 10% fetal bovine serum (FBS), 1% Glutamax, 1% penicillin/streptomycin, 800 μg/mL Geneticin (G418), and 300 μg/mL Hygromycin B.
Cells were plated in a 384-well assay plate at 20,000 cells per well in 12 μL of Opti-MEM and kept in an incubator overnight. On the day of the assay, compounds solubilized at 10 mM in DMSO were added as a 10-point curve (30 uM final top concentration with 1:3 serial dilutions) using a Tecan D300E digital dispenser. Agonists were diluted in assay buffer (final concentrations of 5.7 mM Tris-HCl, 43 mM NaCl, 50 mM LiCl, pH=8) and 2 μL of the agonist Cortistatin-14 (CPC Scientific, catalog CORT-002) are added to each well. Final concentrations of agonists were 0.3 μM Cortistatin. Final concentrations of DMSO were kept consistent across the plate. Plates were incubated in the dark for 1 h at 37° C. and then for 1 h at room temperature. IP-1 standards and HTRF detection reagents were added according to the IP-One—Gq Kit purchased from Cisbio (part number 62IPAPEJ) and incubated in the dark for 1 h at room temperature. The plate was read on a Molecular Devices SpectraMax iD5 plate reader. The HTRF ratio was calculated from the raw data and graphed using GraphPad Prism to calculate an IC50 value for each compound.
The activity ranges are denoted as follows: “+++++” denotes antagonist activity <100 nM; “++++” denotes antagonist activity between 100 and 500 nM; “+++” denotes activity between 501 and 1000 nM; “++” denotes activity between 1001 and 2500 nM; and “+” denotes activity >2500 nM.

Regarding `O=S1(=O)N=C(NCc2ncc(F)cc2F)Nc2c1ccc(F)c2Oc1ccccc1Cl` [Compound 1-14, 5-(2-chlorophenoxy)-3-(((3,5-difluoropyridin-2-yl)methyl)amino)-6-fluoro-4H-benzo[e][1,2,4]thiadiazine 1,1-dioxide], the IC50 was less than 100 nM.
On to `O=S1(=O)N=C(NCc2ncccc2F)Nc2c1ccc(F)c2Oc1ccccc1F` [Compound 1-15, 6-fluoro-5-(2-fluorophenoxy)-3-(((3-fluoropyridin-2-yl)methyl)amino)-4H-benzo[e][1,2,4]thiadiazine 1,1-dioxide], for which the IC50 was 100 to 500 nM.
To `O=S1(=O)N=C(NCc2ncccc2F)Nc2c1ccc(F)c2Oc1ccc(Cl)cc1Cl` [Compound 1-16, 5-(2,4-dichlorophenoxy)-6-fluoro-3-(((3-fluoropyridin-2-yl)methyl)amino)-4H-benzo[e][1,2,4]thiadiazine 1,1-dioxide] belongs 100 to 500 nM.
With `O=S1(=O)N=C(NCc2ncccc2F)Nc2c1ccc(F)c2Oc1c(F)cccc1Cl` [Compound 1-17, 5-(2-chloro-6-fluorophenoxy)-6-fluoro-3-(((3-fluoropyridin-2-yl)methyl)amino)-4H-benzo[e][1,2,4]thiadiazine 1,1-dioxide] the figure was 100 to 500 nM; with `O=S1(=O)N=C(NCc2ncccc2F)Nc2c1ccc(F)c2Oc1ccc(F)cc1Cl` [Compound 1-18, 5-(2-chloro-4-fluorophenoxy)-6-fluoro-3-(((3-fluoropyridin-2-yl)methyl)amino)-4H-benzo[e][1,2,4]thiadiazine 1,1-dioxide], less than 100 nM.
On to `O=S1(=O)N=C(NCc2ncccc2F)Nc2c1ccc(F)c2Oc1cccc(F)c1Cl` [Compound 1-19, 5-(2-chloro-3-fluorophenoxy)-6-fluoro-3-(((3-fluoropyridin-2-yl)methyl)amino)-4H-benzo[e][1,2,4]thiadiazine 1,1-dioxide], for which the IC50 was less than 100 nM.
On to `COc1ccc(F)c(CNC2=NS(=O)(=O)c3ccc(F)c(Oc4ccccc4Cl)c3N2)c1` [Compound 1-20, 5-(2-chlorophenoxy)-6-fluoro-3-((2-fluoro-5-methoxybenzyl)amino)-4H-benzo[e][1,2,4]thiadiazine 1,1-dioxide], for which the IC50 was 1000 to 2500 nM.
With `COc1ccc(F)c(CNC2=NS(=O)(=O)c3ccc(F)c(Oc4ccccc4Cl)c3N2)n1` [Compound 1-21, 5-(2-chlorophenoxy)-6-fluoro-3-(((3-fluoro-6-methoxypyridin-2-yl)methyl)amino)-4H-benzo[e][1,2,4]thiadiazine 1,1-dioxide], the IC50 lay within 501 to 1000 nM.
For `O=S1(=O)N=C(NCc2ccccc2C(F)(F)F)Nc2c1cc(F)c(F)c2Oc1ccccc1Cl` [Compound 1-22, 5-(2-chlorophenoxy)-6,7-difluoro-3-((2-(trifluoromethyl)benzyl)amino)-4H-benzo[e][1,2,4]thiadiazine 1,1-dioxide], the IC50 fell in the range of 100 to 500 nM.
To `O=S1(=O)N=C(NCc2cc(F)ccc2F)Nc2c1ccc(F)c2Oc1ccccc1Cl` [Compound 1-23, 5-(2-chlorophenoxy)-3-((2,5-difluorobenzyl)amino)-6-fluoro-4H-benzo[e][1,2,4]thiadiazine 1,1-dioxide] belongs less than 100 nM; to `Cc1c(F)cccc1CNC1=NS(=O)(=O)c2ccc(F)c(Oc3ccccc3Cl)c2N1` [Compound 1-24, 5-(2-chlorophenoxy)-6-fluoro-3-((3-fluoro-2-methylbenzyl)amino)-4H-benzo[e][1,2,4]thiadiazine 1,1-dioxide], less than 100 nM; to `O=S1(=O)N=C(NCc2cccc(Cl)c2F)Nc2c1ccc(F)c2Oc1ccccc1Cl` [Compound 1-25, 3-((3-chloro-2-fluorobenzyl)amino)-5-(2-chlorophenoxy)-6-fluoro-4H-benzo[e][1,2,4]thiadiazine 1,1-dioxide], less than 100 nM.
With `O=S1(=O)N=C(NCc2ncccc2C(F)(F)F)Nc2c1ccc(F)c2Oc1ccccc1Cl` [Compound 1-26, 5-(2-chlorophenoxy)-6-fluoro-3-(((3-(trifluoromethyl)pyridin-2-yl)methyl)amino)-4H-benzo[e][1,2,4]thiadiazine 1,1-dioxide] the figure was 1000 to 2500 nM.
Consider `O=S1(=O)N=C(NCc2ccccc2C(F)(F)F)Nc2c1ccc(F)c2Oc1ccccc1Cl` [Compound 1-27, 5-(2-chlorophenoxy)-6-fluoro-3-((2-(trifluoromethyl)benzyl)amino)-4H-benzo[e][1,2,4]thiadiazine 1,1-dioxide], for which the IC50 was less than 100 nM.
Take `O=S1(=O)N=C(NCc2cnccc2C(F)(F)F)Nc2c1ccc(F)c2Oc1ccccc1Cl` [Compound 1-28, 5-(2-chlorophenoxy)-6-fluoro-3-(((4-(trifluoromethyl)pyridin-3-yl)methyl)amino)-4H-benzo[e][1,2,4]thiadiazine 1,1-dioxide]: the IC50 fell in the range of 501 to 1000 nM.
To `O=S1(=O)N=C(NCc2ccc(F)cc2F)Nc2c1ccc(F)c2Oc1ccccc1Cl` [Compound 1-29, 5-(2-chlorophenoxy)-3-((2,4-difluorobenzyl)amino)-6-fluoro-4H-benzo[e][1,2,4]thiadiazine 1,1-dioxide] belongs less than 100 nM; to `COc1cccnc1CNC1=NS(=O)(=O)c2ccc(F)c(Oc3ccccc3Cl)c2N1` [Compound 1-30, 5-(2-chlorophenoxy)-6-fluoro-3-(((3-methoxypyridin-2-yl)methyl)amino)-4H-benzo[e][1,2,4]thiadiazine 1,1-dioxide], 100 to 500 nM; to `COc1ccccc1CNC1=NS(=O)(=O)c2ccc(F)c(Oc3ccccc3Cl)c2N1` [Compound 1-31, 5-(2-chlorophenoxy)-6-fluoro-3-((2-methoxybenzyl)amino)-4H-benzo[e][1,2,4]thiadiazine 1,1-dioxide], 100 to 500 nM.
To `Cc1cccnc1CNC1=NS(=O)(=O)c2ccc(F)c(Oc3ccccc3Cl)c2N1` [Compound 1-32, 5-(2-chlorophenoxy)-6-fluoro-3-(((3-methylpyridin-2-yl)methyl)amino)-4H-benzo[e][1,2,4]thiadiazine 1,1-dioxide] belongs 100 to 500 nM; to `O=S1(=O)N=C(NCc2ncccc2F)Nc2c1ccc(F)c2Oc1c(F)cccc1F` [Compound 1-33, 5-(2,6-difluorophenoxy)-6-fluoro-3-(((3-fluoropyridin-2-yl)methyl)amino)-4H-benzo[e][1,2,4]thiadiazine 1,1-dioxide], 501 to 1000 nM; to `O=S1(=O)N=C(NCc2ncccc2F)Nc2c1ccc(F)c2Oc1c(Cl)ccc2ccccc12` [Compound 1-34, 5-((2-chloronaphthalen-1-yl)oxy)-6-fluoro-3-(((3-fluoropyridin-2-yl)methyl)amino)-4H-benzo[e][1,2,4]thiadiazine 1,1-dioxide], less than 100 nM.
To `O=S1(=O)N=C(NCc2ncccc2F)Nc2c1ccc(F)c2Oc1ccccc1-c1ccccc1` [Compound 1-35, 5-([1,1′-biphenyl]-2-yloxy)-6-fluoro-3-(((3-fluoropyridin-2-yl)methyl)amino)-4H-benzo[e][1,2,4]thiadiazine 1,1-dioxide] belongs 1000 to 2500 nM; to `CC(C)(C)c1cccc(Cl)c1Oc1c(F)ccc2c1NC(NCc1ncccc1F)=NS2(=O)=O` [Compound 1-36, 5-(2-(tert-butyl)-6-chlorophenoxy)-6-fluoro-3-(((3-fluoropyridin-2-yl)methyl)amino)-4H-benzo[e][1,2,4]thiadiazine 1,1-dioxide], less than 100 nM; to `O=S1(=O)N=C(NCc2ncccc2O)Nc2c1ccc(F)c2Oc1ccccc1Cl` [Compound 1-37, 5-(2-chlorophenoxy)-6-fluoro-3-(((3-hydroxypyridin-2-yl)methyl)amino)-4H-benzo[e][1,2,4]thiadiazine 1,1-dioxide], greater than 2500 nM.
As to `O=S1(=O)N=C(NCc2ncccc2F)Nc2c1ccc(F)c2Oc1cc(Cl)ccc1Cl` [Compound 1-38, 5-(2,5-dichlorophenoxy)-6-fluoro-3-(((3-fluoropyridin-2-yl)methyl)amino)-4H-benzo[e][1,2,4]thiadiazine 1,1-dioxide], the IC50 was less than 100 nM.
To `O=S1(=O)N=C(NCc2ncccc2F)Nc2c1ccc(F)c2Oc1ccc(F)cc1F` [Compound 1-39, 5-(2,4-difluorophenoxy)-6-fluoro-3-(((3-fluoropyridin-2-yl)methyl)amino)-4H-benzo[e][1,2,4]thiadiazine 1,1-dioxide] belongs less than 100 nM.
